The source of these data is article PMC7953027 (Journal of Pesticide Science, 2021).

A word on the mortality: it is the share of the test organisms that died.

The target of one test is T1, Aedes albopictus EcRs (Aedes albopictus, UniProt Q9U3Y4).
T1 sequence (Q9U3Y4 1-680): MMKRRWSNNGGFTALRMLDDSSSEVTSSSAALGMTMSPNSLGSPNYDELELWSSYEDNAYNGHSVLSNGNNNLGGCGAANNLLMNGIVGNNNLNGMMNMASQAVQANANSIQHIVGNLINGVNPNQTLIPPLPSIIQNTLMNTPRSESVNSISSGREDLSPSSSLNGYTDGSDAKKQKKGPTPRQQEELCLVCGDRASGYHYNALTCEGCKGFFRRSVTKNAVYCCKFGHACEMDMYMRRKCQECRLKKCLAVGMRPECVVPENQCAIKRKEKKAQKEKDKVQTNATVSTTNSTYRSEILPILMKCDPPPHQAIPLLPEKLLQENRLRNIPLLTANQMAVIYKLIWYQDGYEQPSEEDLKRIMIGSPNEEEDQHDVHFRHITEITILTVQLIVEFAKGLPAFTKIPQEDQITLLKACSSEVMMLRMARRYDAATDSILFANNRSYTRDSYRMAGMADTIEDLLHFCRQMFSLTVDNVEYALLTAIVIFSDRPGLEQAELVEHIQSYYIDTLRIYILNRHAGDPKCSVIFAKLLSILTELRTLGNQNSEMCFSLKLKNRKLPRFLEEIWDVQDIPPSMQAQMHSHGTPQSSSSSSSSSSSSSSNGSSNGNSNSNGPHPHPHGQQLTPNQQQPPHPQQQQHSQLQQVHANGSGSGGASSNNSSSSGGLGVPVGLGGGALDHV
T1 sequence (Q9U3Y3 1-485 partner): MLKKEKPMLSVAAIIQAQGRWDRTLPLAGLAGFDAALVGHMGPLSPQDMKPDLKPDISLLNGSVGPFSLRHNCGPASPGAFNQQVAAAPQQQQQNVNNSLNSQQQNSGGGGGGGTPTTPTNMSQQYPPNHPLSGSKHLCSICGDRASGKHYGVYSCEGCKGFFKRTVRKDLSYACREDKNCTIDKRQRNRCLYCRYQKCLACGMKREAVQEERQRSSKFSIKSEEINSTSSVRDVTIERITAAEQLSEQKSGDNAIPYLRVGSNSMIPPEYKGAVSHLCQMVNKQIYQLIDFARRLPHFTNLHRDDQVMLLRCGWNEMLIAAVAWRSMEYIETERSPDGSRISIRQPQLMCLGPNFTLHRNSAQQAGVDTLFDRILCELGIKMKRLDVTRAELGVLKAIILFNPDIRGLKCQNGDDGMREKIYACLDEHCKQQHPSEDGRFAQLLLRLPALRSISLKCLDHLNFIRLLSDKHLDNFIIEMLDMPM
The test is classed as binding. Conditions: for change in binding potency compared to the parent compound: 21, 22, 23 vs. 1, 28, 31 vs. 22; for pIC50 (M): Series II, [3H]PonA binding, NIAS-AeAl-2 cells, 30 min, 25°C, mean±SD.

For a further test, the system named is A. albopictus larvae. The test can be described thus: Larvicidal assay on second-instar larvae. It counts as in vivo, Aedes albopictus. Conditions: for larvicidal activity (in words): 1 µM, 3 days; for mortality at 1 µM / LC50: Aedes albopictus, 72 h; for mortality at 1 µM: read-out: Mortality (%) at 1 µM Obsd.; for LC50: read-out: pLC50 (M) (converted); for Logit A Obsd.: logit-transformed mortality at 1 µM based on Eq. 1.

Turning to `C[C@@H]1C[C@H](Nc2ccccc2)c2cc(F)ccc2N1C(=O)c1ccccn1` [Compound 21, (2R,4S)-6-fluoro-2-methyl-4-(phenylamino)-1-(2-pyridylcarbonyl)-1,2,3,4-tetrahydroquinoline], on Aedes albopictus EcRs, the “change in binding potency compared to the parent compound” value (from here on “change in binding potency”) is recorded as “threefold loss in potency” and the “pIC50 (M)” value is 5.93±0.08 (2) M. For the same compound, in the test on A. albopictus larvae, the “larvicidal activity (in words)” value is listed as “did not show larvicidal activity” and the mortality at 1 µM was 0%.

Consider `C[C@@H]1C[C@H](Nc2ccccc2)c2cc(F)ccc2N1C(=O)c1cccnc1` [Compound 22], for which, on Aedes albopictus EcRs, the “pIC50 (M)” value was 6.76±0.15 (2) M. In the test with A. albopictus larvae, the “larvicidal activity (in words)” value was “did not show larvicidal activity” and the mortality at 1 µM came to 0%.

On to `C[C@@H]1C[C@H](Nc2ccccc2)c2cc(F)ccc2N1C(=O)c1ccncc1` [Compound 23, (2R,4S)-6-fluoro-2-methyl-4-(phenylamino)-1-(4-pyridylcarbonyl)-1,2,3,4-tetrahydroquinoline], for which, at Aedes albopictus EcRs, the “change in binding potency” value is “eightfold gain in potency” and the “pIC50 (M)” value is given as 7.29±0.03 (2) M. Further, in the test with A. albopictus larvae, the mortality at 1 µM came to 36 ± 14%, the LC50 is 2.57e-06 M and the “Logit A Obsd.” value is listed as −0.24.

Consider `C[C@@H]1C[C@H](Nc2ccccc2)c2cc(F)ccc2N1C(=O)c1ccncn1` [Compound 24], for which the “pIC50 (M)” value at Aedes albopictus EcRs was 6.67±0.03 (2) M. Besides, in the test with A. albopictus larvae, the mortality at 1 µM came to 10% and the “Logit A Obsd.” value was −0.95.

As for `C[C@@H]1C[C@H](Nc2ccccc2)c2cc(F)ccc2N1C(=O)c1ccnnc1` [Compound 25], on Aedes albopictus EcRs, the “pIC50 (M)” value was 6.51±0.13 (2) M. For the same compound, in the test on A. albopictus larvae, the mortality at 1 µM is 10% and the “Logit A Obsd.” value is reported as −0.95.

For `C[C@@H]1C[C@H](Nc2ccccc2)c2cc(F)ccc2N1C(=O)c1cncnc1` [Compound 26], on Aedes albopictus EcRs, the “pIC50 (M)” value is 6.37±0.02 (2) M. In the test with A. albopictus larvae, the mortality at 1 µM came to 5% and the “Logit A Obsd.” value is given as −1.28.

In the case of `C[C@@H]1C[C@H](Nc2ccccc2)c2cc(F)ccc2N1C(=O)c1cnc(Cl)nc1` [Compound 27], the “pIC50 (M)” value at Aedes albopictus EcRs is reported as 6.11±0.12 (2) M. In the test on A. albopictus larvae, the mortality at 1 µM is 16% and the “Logit A Obsd.” value was −0.72.

As for `Cc1ccc(C(=O)N2c3ccc(F)cc3[C@@H](Nc3ccccc3)C[C@H]2C)cn1` [Compound 28], at Aedes albopictus EcRs, the “change in binding potency” value was “equipotent” and the “pIC50 (M)” value is given as 6.64±0.08 (2) M. Also, in the test with A. albopictus larvae, the mortality at 1 µM stood at 11% and the “Logit A Obsd.” value was −0.91.

`C[C@@H]1C[C@H](Nc2ccccc2)c2cc(F)ccc2N1C(=O)c1ccc(Cl)nc1` [Compound 29]: the “pIC50 (M)” value on Aedes albopictus EcRs is 7.09±0.07 (2) M. In the test with A. albopictus larvae, the mortality at 1 µM worked out at 80%, the LC50 is 4.57e-07 M and the “Logit A Obsd.” value was found to be 0.60.

As for `C[C@@H]1C[C@H](Nc2ccccc2)c2cc(F)ccc2N1C(=O)c1ccc(C(F)(F)F)nc1` [Compound 30], on Aedes albopictus EcRs, the “pIC50 (M)” value is 7.03±0.00 (2) M. Besides, in the test on A. albopictus larvae, the mortality at 1 µM was determined as 44 ± 24%, the LC50 is 9.55e-07 M and the “Logit A Obsd.” value is listed as −0.10.

Consider `C[C@@H]1C[C@H](Nc2ccccc2)c2cc(F)ccc2N1C(=O)c1ccc(C#N)nc1` [Compound 31], for which, at Aedes albopictus EcRs, the “change in binding potency” value is given as “sevenfold gain in potency” and the “pIC50 (M)” value was 7.61±0.08 (2) M. Also, in the test on A. albopictus larvae, the mortality at 1 µM worked out at 77 ± 19%, the LC50 is 5.13e-07 M and the “Logit A Obsd.” value was determined as 0.51.

Turning to `C[C@@H]1C[C@H](Nc2ccccc2)c2cc(F)ccc2N1C(=O)c1ccnc(F)c1` [Compound 32], at Aedes albopictus EcRs, the “pIC50 (M)” value is listed as 7.47±0.08 (2) M. Further, in the test with A. albopictus larvae, the mortality at 1 µM is 74 ± 11%, the LC50 is 4.68e-07 M and the “Logit A Obsd.” value stood at 0.44.

On to `C[C@@H]1C[C@H](Nc2ccccc2)c2cc(F)ccc2N1C(=O)c1ccnc(C(F)(F)F)c1` [Compound 34], for which, on Aedes albopictus EcRs, the “pIC50 (M)” value is reported as 6.56±0.04 (2) M. In the test on A. albopictus larvae, the “larvicidal activity (in words)” value was “did not show larvicidal activity” and the mortality at 1 µM came to 0%.

For `C[C@@H]1C[C@H](Nc2ccccc2)c2cc(F)ccc2N1C(=O)c1ccnc(C#N)c1` [Compound 35], at Aedes albopictus EcRs, the “pIC50 (M)” value was 6.55±0.07 (2) M. In the test on A. albopictus larvae, the “larvicidal activity (in words)” value is listed as “did not show larvicidal activity” and the mortality at 1 µM stood at 0%.
